Calls of active or inactive are those of the source.
Tests used:
[1] = target: T1, Protein RecA (Mycobacterium tuberculosis, UniProt P9WHJ3); assay: Fluorescence Cell-Free Homogeneous Dose Retest to Identify Inhibitors of RecA-Intein Splicing Activity. [Related pubchem assays (depositor defined):AID2097, AID2223, AID489010, AID492950]; format: functional
T1 sequence (P9WHJ3 whole entry): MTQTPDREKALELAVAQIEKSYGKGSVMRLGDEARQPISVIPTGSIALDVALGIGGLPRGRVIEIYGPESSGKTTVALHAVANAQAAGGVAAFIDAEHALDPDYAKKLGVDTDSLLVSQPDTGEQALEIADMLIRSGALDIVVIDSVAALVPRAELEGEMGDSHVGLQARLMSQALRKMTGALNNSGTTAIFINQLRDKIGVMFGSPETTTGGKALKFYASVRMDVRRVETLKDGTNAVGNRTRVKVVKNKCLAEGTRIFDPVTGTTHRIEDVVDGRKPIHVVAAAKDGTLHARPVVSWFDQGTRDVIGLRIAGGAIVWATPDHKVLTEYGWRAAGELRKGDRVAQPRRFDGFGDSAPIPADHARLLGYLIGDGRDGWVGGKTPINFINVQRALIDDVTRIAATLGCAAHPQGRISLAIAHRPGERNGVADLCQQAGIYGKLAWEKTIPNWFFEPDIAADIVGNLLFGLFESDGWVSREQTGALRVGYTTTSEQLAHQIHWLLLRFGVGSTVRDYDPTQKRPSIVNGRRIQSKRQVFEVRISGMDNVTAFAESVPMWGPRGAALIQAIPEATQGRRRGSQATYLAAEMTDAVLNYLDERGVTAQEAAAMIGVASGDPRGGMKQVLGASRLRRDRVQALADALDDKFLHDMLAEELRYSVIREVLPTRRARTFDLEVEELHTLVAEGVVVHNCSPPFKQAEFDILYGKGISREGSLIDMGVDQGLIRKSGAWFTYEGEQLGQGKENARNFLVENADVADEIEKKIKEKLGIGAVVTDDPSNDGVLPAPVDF

[2] = system: Vero; assay: Vero cell cytotoxicity, cytotoxicity control for flavivirus capping enzyme inhibitors (AID 588742); format: functional; conditions: Chlorocebus sabaeus
[3] = inhibitors of intracellular T. cruzi replication, confirmation, NIH3T3 host cells, beta-gal luminescence (AID 2044); format: functional, cell-based;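 note: intracellular parasites grown in NIH/3T3 mouse fibroblasts as host cells; luminescent beta-galactosidase reporter signal from transgenic T. cruzi replicating inside host cells; inhibitors lower the luminescence signal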
[4] = cytotoxicity toward NIH3T3 fibroblasts, dose response, counter-screen, cell-based, ATP luminescence, mouse fibroblasts (AID 2010); format: functional;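 note: cells exposed to compound for about 90 hours before reading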
[5] = microbe, parasite or virus in culture; format: functional; conditions: Mycobacterium tuberculosis
[6] = target: Genome polyprotein (dengue virus type 2, UniProt P29990); assay: Dengue-2 NS5 methyltransferase inhibitors, primary screen, biochemical, confirmation dose response (AID 588689); format: functional
Sequence of Genome polyprotein (P29990 2492-3391 limits assumed): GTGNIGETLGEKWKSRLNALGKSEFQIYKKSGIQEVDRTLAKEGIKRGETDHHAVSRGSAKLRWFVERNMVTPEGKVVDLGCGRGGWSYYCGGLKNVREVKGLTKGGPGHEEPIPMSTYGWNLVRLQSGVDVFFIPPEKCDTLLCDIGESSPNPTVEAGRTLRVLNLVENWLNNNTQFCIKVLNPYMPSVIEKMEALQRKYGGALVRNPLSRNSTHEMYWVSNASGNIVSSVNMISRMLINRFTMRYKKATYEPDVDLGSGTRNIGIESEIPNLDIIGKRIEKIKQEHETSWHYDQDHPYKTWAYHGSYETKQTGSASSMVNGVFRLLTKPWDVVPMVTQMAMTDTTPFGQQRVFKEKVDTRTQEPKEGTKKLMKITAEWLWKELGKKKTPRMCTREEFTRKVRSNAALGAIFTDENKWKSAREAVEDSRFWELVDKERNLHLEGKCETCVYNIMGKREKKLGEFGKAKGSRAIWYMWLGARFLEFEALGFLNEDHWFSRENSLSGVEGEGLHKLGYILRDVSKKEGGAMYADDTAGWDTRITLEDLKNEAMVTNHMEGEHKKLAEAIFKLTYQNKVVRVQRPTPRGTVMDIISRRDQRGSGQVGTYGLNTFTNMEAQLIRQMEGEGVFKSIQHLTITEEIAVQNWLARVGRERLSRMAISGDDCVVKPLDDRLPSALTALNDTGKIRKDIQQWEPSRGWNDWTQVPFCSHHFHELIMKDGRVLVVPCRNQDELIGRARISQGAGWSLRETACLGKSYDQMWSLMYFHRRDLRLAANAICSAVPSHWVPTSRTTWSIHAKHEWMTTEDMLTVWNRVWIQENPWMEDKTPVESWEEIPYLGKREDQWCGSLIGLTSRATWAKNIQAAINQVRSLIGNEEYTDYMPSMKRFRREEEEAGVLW

[7] = target: T2, Replicative DNA helicase DnaB (Mycobacterium tuberculosis, UniProt P9WMR3); assay: DnaB intein splicing inhibitors, dose response, biochemical, cell-free fluorescence (AID 449749); format: functional
T2 sequence (P9WMR3 whole entry): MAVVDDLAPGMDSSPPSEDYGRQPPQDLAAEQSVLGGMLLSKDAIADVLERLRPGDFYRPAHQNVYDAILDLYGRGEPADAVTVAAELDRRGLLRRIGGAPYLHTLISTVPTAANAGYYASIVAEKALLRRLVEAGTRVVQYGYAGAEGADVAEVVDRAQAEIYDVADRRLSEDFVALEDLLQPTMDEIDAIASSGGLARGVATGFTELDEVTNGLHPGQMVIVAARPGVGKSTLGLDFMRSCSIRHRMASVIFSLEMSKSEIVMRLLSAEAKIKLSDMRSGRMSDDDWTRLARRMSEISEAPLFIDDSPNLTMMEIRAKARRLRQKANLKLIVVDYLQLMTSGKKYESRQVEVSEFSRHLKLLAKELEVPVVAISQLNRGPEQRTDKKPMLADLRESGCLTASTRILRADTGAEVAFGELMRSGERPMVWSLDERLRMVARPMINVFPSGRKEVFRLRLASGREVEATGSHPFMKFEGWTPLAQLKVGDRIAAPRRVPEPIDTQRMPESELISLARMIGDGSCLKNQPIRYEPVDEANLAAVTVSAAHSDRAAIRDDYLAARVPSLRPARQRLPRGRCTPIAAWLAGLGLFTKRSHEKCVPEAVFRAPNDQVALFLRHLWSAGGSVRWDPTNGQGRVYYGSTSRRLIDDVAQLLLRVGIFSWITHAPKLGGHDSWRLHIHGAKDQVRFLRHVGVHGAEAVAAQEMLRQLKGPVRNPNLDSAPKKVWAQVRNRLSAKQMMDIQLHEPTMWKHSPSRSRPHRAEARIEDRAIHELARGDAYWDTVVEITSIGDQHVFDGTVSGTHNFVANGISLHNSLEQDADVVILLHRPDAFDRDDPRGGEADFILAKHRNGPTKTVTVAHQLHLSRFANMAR

[8] = target: T3, Orexin/Hypocretin receptor type 1 (Homo sapiens, UniProt O43613); assay: Fluorescence-based cell-based high throughput dose response assay for antagonists of the orexin 1 receptor (OX1R; HCRTR1). [Related pubchem assays (depositor defined):AID434989, AID435008, AID463079, AID485270, AID492963, AID492964, AID492965, AID493232, AID504717, AID504718]; format: functional
T3 sequence (O43613 whole entry): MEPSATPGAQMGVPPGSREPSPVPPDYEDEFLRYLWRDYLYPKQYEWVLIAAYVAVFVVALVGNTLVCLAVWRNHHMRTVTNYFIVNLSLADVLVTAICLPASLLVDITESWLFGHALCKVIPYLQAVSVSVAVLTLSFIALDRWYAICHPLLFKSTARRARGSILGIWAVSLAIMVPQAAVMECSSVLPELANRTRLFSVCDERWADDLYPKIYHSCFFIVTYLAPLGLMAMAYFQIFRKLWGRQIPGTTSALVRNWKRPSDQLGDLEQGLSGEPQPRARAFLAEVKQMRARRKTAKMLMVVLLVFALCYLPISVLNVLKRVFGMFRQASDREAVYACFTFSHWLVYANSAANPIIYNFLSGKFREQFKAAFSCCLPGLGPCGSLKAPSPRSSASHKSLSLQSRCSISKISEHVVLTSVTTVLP

[9] = target: T4, Orexin receptor type 2 (Homo sapiens, UniProt O43614); assay: Counterscreen assay for antagonists of the orexin 1 receptor (OX1R; HCRTR1): Homogeneous Time Resolved Fluorescence (HTRF)-based cell-based dose response assay for antagonists of the orexin 2 receptor (OX2R; HCRTR2), run by assay provider.; format: functional
T4 sequence (O43614 whole entry): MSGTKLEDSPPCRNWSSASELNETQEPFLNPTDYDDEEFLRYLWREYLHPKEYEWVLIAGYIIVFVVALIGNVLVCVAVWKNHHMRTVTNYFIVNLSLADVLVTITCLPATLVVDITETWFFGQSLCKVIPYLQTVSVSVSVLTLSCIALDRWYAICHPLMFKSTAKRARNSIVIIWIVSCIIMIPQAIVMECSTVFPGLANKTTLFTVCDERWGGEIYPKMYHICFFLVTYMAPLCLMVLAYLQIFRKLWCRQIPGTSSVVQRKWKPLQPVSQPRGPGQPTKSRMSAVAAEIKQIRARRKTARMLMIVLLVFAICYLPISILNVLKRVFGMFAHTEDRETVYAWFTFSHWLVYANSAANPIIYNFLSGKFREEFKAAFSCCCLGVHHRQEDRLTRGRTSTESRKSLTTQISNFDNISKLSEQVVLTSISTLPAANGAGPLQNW

[10] = target: T4, Orexin receptor type 2; assay: Counterscreen assay for antagonists of the orexin 1 receptor (OX1R; HCRTR1): Fluorescence-based cell-based dose response assay for antagonists of the orexin 2 receptor (OX2R; HCRTR2), run by assay provider.; format: functional
[11] = target: T3, Orexin/Hypocretin receptor type 1; assay: Homogeneous Time Resolved Fluorescence (HTRF)-based cell-based high throughput dose response assay for antagonists of the orexin 1 receptor (OX1R; HCRTR1). [Related pubchem assays (depositor defined):AID434989, AID435008, AID463079, AID485270, AID492963, AID492964, AID492965, AID493232, AID504717, AID504718]; format: functional
[12] = system: CHO-K1; assay: Counterscreen for antagonists of the orexin 1 receptor (OX1R; HCRTR1): Homogeneous time resolved fluorescence (HTRF)-based cell-based dose response assay to identify antagonists of the parental CHO-K1 cell line. [Related pubchem assays (depositor defined):AID434989, AID435008, AID463079, AID485270, AID492963, AID492964, AID492965, AID493232, AID504699, AID504701]; format: functional; conditions: Cricetulus griseus;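 note: potency for inhibition of ATP-stimulated IP1 production as antagonists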
[13] = Counterscreen for antagonists of the orexin 1 receptor (OX1R; HCRTR1): Fluorescence-based cell-based high throughput dose response assay to identify antagonists of the parental CHO cell line. [Related pubchem assays (depositor defined):AID434989, AID435008, AID463079, AID485270, AID492963, AID492964, AID492965, AID493232, AID504699, AID504701]; format: functional
[14] = target: Estrogen receptor beta (Homo sapiens, UniProt Q92731);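 note: recombinant ER-beta bound to coactivator SRC1 peptide in presence of estradiol agonist; inhibitors block coactivator peptide binding and lower the FRET signal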
Sequence of Estrogen receptor beta (Q92731 whole entry): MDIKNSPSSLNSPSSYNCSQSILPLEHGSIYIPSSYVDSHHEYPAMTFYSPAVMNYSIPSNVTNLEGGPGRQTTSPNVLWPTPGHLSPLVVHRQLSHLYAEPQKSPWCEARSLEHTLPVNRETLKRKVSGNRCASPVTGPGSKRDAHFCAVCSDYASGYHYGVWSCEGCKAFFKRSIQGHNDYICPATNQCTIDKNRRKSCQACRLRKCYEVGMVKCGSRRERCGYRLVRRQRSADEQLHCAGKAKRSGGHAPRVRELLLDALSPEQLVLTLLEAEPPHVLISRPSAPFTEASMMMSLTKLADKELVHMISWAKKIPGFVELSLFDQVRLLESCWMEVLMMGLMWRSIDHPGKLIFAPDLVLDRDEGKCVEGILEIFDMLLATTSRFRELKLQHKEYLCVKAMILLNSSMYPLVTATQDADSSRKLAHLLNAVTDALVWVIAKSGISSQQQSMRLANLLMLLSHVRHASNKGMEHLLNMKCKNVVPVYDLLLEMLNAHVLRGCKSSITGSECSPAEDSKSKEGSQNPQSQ

[15] = target: T5, Insulin-degrading enzyme (Homo sapiens, UniProt P14735); assay: activators of endogenous IDE in HEK cells, dose response, cell-based, fluorescence polarization (AID 588439); format: functional
T5 sequence (P14735 whole entry): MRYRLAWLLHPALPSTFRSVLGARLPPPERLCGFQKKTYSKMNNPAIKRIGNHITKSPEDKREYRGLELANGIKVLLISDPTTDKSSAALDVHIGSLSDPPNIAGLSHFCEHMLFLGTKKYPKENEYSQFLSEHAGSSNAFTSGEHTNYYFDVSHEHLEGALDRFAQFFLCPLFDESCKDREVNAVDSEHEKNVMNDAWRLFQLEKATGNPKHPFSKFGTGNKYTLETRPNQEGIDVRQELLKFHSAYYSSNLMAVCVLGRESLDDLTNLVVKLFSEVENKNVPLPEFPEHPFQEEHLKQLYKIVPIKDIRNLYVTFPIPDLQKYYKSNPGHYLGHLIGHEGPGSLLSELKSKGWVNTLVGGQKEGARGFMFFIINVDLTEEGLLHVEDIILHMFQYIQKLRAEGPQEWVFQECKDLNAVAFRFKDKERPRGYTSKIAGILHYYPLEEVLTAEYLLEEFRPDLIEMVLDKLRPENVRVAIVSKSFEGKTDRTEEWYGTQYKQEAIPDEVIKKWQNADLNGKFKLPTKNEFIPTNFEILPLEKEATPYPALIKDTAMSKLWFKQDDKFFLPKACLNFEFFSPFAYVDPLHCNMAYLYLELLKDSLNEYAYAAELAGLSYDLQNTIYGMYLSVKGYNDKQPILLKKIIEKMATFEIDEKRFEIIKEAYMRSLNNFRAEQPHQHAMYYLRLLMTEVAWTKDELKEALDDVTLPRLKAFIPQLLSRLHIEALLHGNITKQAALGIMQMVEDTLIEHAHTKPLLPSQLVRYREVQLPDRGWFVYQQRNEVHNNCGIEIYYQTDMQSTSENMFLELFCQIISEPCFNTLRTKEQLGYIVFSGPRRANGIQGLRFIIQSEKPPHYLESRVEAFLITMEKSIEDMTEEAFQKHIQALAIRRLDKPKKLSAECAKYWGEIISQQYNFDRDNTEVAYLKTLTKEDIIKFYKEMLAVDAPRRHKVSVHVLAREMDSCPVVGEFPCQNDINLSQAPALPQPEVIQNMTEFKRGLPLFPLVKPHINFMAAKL

[16] = system: HEK293; assay: optical interference in Abeta FP readout, dose response, artefact control for IDE activator project, biochemical, fluorescence polarization (AID 588442); format: functional, cell-based; conditions: Homo sapiens
[17] = system: HEK293; assay: HEK cell cytotoxicity by LDH release, dose response, cytotoxicity control for IDE activator project, fluorescence, HEK cells (AID 588440); format: functional, cell-based; conditions: Homo sapiens;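 note: cytotoxicity by LDH release measuring loss of membrane integrity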
[18] = target: T5, Insulin-degrading enzyme; assay: activators of recombinant IDE enzyme, dose response, counter-screen for IDE activator project, biochemical, fluorescence polarization (AID 588681)

SMILES	IC50 [8]	IC50 [9]	IC50 [10]	IC50 [11]	IC50 [12]	IC50 [13]	EC50 [15]	EC50 [16]	IC50 [17]	EC50 [18]	also measured
O=[N+]([O-])c1cc([N+](=O)[O-])c2c(Nc3ccccc3)n(-c3ccccc3)[n+]([O-])c2c1											EC50 [1]: 1.97 µM (active); CC50 [2]: 38.9 µM (active); EC50 [3]: 0.313 µM (active); EC50 [4]: > 60 µM (not active); CC50 [5]: 29.7 µM (active); IC50 [6]: 30.9 µM (active); AC50 [7]: 5.84 µM (active)
Cc1cc(NC(=O)CCC(=O)N(Cc2cccs2)C(C(=O)NC2CCCC2)c2ccccc2)no1 (configuration not stated)	12.7 µM (inactive)	> 50 µM (inactive)	42.4 µM (inactive)	0.315 µM (active)	> 66.2 µM (inactive)	> 49.8 µM (inactive)					
CC(=O)Nc1cc2c(cc1C(=O)c1ccccc1)OCCO2							> 54.7 µM (inactive)	> 54.7 µM (inactive)	> 89.2 µM (inactive)	> 54.7 µM (inactive)	IC50 [14]: > 50 µM (not active)
COc1ccc(CNc2nc3ccccc3n2CCN2CCOCC2)cc1							> 54.7 µM (inactive)	> 55.9 µM (inactive)	> 89.1 µM (inactive)	> 54.7 µM (inactive)	
C=CCNc1nc(N(c2ccccc2)c2ccccc2)nc(-n2ccnc2)n1	> 49.8 µM (inactive)	> 50 µM (inactive)	> 88.8 µM (inactive)	6.47 µM (active)	> 66.2 µM (inactive)	> 49.8 µM (inactive)					
O=C(c1cc([N+](=O)[O-])ccc1N1CCOCC1)N1CCN(c2ccc([N+](=O)[O-])cc2)CC1							3.16 µM (active)	1.09 µM (active)	> 89.2 µM (inactive)	3.64 µM (active)	
